We go through 4 compounds from patent publication US20250034216A1, “STEREOSELECTIVE COVALENT LIGANDS FOR ONCOGENIC AND IMMUNOLOGICAL PROTEINS” (The Scripps Research Institute, priority 2021, published 2025).

Common to all, as to experiment: IA-DTB cysteine engagement
Type in all cases: binding
Common to all, as to details: 22Rv1 cells, 20 μM probe, 1 h, relative to DMSO

For one test, the target named is T1, CDKN2AIP_C516 (Homo sapiens, UniProt Q9NXV6).
T1 construct: endogenous in cells; host or cells: 22Rv1
T1 sequence (Q9NXV6 1-580): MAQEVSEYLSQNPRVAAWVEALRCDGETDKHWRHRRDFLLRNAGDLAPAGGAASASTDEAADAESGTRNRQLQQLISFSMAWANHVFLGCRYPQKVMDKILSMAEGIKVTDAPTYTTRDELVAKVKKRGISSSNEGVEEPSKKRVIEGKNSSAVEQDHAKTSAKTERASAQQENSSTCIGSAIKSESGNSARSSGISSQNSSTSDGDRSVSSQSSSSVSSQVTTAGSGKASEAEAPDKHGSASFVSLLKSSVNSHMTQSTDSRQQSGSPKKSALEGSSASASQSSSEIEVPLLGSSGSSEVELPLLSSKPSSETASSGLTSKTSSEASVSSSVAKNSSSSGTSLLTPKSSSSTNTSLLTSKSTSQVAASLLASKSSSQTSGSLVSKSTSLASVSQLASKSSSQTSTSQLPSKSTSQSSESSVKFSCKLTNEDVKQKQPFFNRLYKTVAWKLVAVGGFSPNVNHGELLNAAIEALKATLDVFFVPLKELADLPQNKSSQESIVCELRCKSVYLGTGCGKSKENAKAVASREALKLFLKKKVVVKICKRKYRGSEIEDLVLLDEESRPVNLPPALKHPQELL
In outline: (§1)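 First, cells are exposed to electrophilic probes in situ. Next, lysates are labeled with IA-DTB (1 h, ambient temperature), reduced, alkylated and trypsin-digested. Then, IA-DTB peptides are enriched on streptavidin, TMT-labeled and analyzed, with ratios taken against DMSO channels.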

The next test has as its target T2, UBR5_C2094 (Homo sapiens, UniProt O95071).
T2 construct: endogenous in cells; host or cells: 22Rv1
In outline: as §1

The target in the next test is T3, NUP205_C224 (Homo sapiens, UniProt Q92621).
T3 construct: endogenous in cells; host or cells: 22Rv1
The gist of the method: as §1

The next test concerns the target T4, ABCB8_C462 (Homo sapiens, UniProt Q9NUT2).
T4 construct: endogenous in cells; host or cells: 22Rv1
T4 sequence (Q9NUT2 26-735): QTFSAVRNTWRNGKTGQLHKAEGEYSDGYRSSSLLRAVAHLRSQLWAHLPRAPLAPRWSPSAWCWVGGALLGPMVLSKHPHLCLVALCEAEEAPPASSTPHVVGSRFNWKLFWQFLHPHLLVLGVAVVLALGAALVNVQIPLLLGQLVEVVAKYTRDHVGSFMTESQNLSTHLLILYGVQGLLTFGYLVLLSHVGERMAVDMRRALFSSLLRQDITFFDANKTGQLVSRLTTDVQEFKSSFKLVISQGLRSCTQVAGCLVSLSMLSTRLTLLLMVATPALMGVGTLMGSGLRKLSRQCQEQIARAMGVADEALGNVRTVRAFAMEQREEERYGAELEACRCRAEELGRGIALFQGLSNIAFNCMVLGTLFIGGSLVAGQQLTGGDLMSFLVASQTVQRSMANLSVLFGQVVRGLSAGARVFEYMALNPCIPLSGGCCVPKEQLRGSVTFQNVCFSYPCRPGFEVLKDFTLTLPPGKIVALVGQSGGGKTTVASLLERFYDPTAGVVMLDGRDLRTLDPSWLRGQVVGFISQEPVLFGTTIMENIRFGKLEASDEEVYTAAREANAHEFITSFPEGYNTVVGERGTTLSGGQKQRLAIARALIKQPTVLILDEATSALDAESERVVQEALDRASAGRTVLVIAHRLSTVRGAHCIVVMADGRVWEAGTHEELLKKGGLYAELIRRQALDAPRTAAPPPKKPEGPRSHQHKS
In outline: as §1

T3 sequence (Q92621 whole entry): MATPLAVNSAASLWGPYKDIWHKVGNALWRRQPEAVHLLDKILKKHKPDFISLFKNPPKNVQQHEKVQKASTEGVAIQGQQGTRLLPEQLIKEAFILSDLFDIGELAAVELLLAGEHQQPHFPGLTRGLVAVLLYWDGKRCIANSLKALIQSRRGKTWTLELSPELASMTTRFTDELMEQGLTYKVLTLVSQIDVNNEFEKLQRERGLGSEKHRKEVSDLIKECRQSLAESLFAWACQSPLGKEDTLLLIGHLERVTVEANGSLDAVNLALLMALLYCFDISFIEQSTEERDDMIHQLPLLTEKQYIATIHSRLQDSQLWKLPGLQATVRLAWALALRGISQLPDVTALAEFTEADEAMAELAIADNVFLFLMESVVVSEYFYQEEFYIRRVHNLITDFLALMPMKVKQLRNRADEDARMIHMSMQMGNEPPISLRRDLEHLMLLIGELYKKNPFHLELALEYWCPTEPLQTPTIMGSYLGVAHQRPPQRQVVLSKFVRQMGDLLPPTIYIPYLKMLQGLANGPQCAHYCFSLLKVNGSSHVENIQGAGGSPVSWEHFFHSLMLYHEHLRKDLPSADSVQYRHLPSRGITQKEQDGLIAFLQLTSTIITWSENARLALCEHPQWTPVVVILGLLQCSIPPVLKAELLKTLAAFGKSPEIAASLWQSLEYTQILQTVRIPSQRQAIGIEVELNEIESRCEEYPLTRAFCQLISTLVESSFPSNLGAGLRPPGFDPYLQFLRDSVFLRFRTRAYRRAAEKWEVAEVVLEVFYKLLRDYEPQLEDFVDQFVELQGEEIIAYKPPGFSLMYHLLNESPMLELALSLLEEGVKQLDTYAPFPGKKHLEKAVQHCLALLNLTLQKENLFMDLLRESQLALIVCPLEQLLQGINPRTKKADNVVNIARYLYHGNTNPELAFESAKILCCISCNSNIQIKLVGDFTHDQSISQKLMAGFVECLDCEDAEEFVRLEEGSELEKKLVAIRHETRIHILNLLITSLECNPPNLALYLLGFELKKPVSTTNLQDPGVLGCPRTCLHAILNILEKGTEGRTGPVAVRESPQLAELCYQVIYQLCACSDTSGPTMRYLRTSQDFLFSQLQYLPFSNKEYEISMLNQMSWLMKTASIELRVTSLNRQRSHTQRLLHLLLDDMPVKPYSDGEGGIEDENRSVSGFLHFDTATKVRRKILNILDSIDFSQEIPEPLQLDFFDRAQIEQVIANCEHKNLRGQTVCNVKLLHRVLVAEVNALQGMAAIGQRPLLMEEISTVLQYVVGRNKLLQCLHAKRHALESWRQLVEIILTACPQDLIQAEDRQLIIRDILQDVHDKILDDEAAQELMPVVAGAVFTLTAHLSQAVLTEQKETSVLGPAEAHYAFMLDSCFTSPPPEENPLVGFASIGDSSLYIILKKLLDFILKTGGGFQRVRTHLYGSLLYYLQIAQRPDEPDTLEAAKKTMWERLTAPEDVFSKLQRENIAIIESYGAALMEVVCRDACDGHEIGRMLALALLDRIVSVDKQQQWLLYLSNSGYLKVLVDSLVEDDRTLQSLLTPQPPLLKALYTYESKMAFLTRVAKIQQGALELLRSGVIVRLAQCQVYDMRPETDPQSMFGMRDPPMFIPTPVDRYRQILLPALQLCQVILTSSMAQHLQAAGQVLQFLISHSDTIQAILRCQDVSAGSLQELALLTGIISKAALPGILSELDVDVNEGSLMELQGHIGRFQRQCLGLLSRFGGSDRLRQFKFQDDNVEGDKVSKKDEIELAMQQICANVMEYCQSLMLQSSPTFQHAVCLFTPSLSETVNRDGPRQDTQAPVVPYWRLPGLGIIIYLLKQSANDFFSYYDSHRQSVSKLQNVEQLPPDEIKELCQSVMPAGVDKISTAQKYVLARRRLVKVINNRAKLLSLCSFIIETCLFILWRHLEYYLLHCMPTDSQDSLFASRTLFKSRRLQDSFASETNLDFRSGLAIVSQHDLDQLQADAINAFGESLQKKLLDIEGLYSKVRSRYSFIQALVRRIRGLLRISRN
T2 sequence (O95071 whole entry): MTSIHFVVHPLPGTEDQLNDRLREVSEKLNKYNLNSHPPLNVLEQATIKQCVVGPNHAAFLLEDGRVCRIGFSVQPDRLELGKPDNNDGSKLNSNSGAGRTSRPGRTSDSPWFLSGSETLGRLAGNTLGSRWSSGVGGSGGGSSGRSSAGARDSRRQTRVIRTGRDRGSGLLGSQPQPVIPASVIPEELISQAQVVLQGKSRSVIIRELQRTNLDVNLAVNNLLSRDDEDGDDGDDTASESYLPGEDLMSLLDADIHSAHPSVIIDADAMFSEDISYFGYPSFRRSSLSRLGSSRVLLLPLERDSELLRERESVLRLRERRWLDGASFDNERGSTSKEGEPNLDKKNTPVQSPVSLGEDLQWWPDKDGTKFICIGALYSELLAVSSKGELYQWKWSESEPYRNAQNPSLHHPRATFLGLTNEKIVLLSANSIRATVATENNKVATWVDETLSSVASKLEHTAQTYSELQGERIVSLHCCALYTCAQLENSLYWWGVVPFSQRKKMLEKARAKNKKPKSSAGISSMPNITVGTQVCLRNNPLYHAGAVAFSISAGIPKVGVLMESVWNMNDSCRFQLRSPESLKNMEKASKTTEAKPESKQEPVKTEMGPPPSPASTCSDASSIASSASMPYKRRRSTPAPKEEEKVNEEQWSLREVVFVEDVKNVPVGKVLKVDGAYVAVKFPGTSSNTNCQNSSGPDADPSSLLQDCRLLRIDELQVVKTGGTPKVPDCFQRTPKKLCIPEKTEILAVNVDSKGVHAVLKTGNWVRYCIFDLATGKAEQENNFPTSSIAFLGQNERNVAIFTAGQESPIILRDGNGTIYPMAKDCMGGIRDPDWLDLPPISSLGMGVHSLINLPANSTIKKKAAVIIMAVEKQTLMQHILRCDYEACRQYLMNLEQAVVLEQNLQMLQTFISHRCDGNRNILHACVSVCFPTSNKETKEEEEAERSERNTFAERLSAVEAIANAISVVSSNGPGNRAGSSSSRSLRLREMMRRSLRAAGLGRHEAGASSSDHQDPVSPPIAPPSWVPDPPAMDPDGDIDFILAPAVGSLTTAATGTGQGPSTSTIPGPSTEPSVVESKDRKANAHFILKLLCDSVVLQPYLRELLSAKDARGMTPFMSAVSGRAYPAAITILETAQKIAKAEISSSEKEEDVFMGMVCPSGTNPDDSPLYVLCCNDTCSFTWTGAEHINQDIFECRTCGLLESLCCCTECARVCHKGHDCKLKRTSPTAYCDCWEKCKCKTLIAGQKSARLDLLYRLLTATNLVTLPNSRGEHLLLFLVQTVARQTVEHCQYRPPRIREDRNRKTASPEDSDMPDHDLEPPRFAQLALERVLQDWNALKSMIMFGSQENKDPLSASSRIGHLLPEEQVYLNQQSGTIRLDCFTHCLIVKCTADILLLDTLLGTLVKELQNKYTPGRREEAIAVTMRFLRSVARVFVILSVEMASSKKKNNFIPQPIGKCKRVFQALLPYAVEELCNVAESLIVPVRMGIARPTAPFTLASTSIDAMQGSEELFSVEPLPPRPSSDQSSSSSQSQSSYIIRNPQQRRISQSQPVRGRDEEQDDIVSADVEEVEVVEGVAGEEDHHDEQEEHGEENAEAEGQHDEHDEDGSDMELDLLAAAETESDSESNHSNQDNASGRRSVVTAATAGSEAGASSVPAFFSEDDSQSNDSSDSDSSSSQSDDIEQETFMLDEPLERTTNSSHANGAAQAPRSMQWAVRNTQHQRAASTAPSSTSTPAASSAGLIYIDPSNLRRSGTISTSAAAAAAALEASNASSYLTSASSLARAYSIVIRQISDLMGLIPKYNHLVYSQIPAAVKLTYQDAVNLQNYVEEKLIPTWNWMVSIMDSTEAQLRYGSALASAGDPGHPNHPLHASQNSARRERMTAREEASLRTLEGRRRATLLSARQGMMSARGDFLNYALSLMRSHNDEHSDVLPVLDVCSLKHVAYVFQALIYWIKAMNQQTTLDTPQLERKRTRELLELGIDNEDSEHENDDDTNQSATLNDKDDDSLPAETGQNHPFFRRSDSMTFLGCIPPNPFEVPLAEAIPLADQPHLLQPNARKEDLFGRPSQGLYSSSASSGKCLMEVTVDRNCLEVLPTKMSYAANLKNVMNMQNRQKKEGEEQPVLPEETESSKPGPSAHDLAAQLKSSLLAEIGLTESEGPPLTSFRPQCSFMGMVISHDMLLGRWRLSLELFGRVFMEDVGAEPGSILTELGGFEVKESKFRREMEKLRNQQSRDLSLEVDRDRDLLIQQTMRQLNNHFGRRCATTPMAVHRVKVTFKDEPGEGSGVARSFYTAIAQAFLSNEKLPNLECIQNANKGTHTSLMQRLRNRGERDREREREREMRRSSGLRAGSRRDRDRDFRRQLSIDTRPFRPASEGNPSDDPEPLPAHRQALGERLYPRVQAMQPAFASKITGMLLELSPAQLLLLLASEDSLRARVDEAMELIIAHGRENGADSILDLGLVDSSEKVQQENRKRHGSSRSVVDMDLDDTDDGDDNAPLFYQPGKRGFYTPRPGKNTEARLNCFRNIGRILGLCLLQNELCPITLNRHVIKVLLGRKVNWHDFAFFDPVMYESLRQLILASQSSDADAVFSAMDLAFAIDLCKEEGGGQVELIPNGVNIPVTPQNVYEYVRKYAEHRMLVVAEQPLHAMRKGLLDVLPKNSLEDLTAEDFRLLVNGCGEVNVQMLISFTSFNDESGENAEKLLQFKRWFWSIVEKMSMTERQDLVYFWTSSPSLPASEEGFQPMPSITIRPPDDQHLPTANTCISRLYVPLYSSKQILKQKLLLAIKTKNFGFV

For `C=CC(=O)N1C[C@H](c2ccc(Br)cc2)[C@H]1C(=O)Nc1cccc2cccnc12` [MY-3A, (2S,3S)-1-acryloyl-3-(4-bromophenyl)-N-(quinolin-8-yl)azetidine-2-carboxamide], on CDKN2AIP_C516, the “% engagement CDKN2AIP_C516” value is listed as 12.75%. Also, the “% engagement UBR5_C2094” value on UBR5_C2094 came to 22.5%. Moreover, the “% engagement NUP205_C224” value on NUP205_C224 worked out at 100%. Also, the “% engagement ABCB8_C462” value on ABCB8_C462 stood at 19.5%.

Regarding `C=CC(=O)N1C[C@@H](c2ccc(Br)cc2)[C@H]1C(=O)Nc1cccc2cccnc12` [MY-1A, (2S,3R)-1-acryloyl-3-(4-bromophenyl)-N-(quinolin-8-yl)azetidine-2-carboxamide], the “% engagement CDKN2AIP_C516” value at CDKN2AIP_C516 was found to be 66.5%. Also, the “% engagement UBR5_C2094” value on UBR5_C2094 is given as 23%. On NUP205_C224, the “% engagement NUP205_C224” value is 28.5%. Also, on ABCB8_C462, the “% engagement ABCB8_C462” value is 28.5%.

On to `C=CC(=O)N1C[C@H](c2ccc(Br)cc2)[C@@H]1C(=O)Nc1cccc2cccnc12` [MY-1B, (2R,3S)-1-acryloyl-3-(4-bromophenyl)-N-(quinolin-8-yl)azetidine-2-carboxamide], for which the “% engagement CDKN2AIP_C516” value at CDKN2AIP_C516 came to 24%. For the same compound, the “% engagement UBR5_C2094” value at UBR5_C2094 is 40.5%. At NUP205_C224, the “% engagement NUP205_C224” value amounted to 6%. The “% engagement ABCB8_C462” value on ABCB8_C462 is reported as 39%.

With `C=CC(=O)N1C[C@H](c2ccc(Br)cc2)[C@H]1C(=O)Nc1cccc2cccnc12` [MY-3B, (2S,3S)-1-acryloyl-3-(4-bromophenyl)-N-(quinolin-8-yl)azetidine-2-carboxamide], the “% engagement CDKN2AIP_C516” value at CDKN2AIP_C516 stood at 18.75%. Moreover, the “% engagement UBR5_C2094” value at UBR5_C2094 came out at 81%. The “% engagement NUP205_C224” value at NUP205_C224 was 30.5%. Moreover, on ABCB8_C462, the “% engagement ABCB8_C462” value came out at 73.25%.
